Experimental data reported in ChEMBL document CHEMBL1777772, “Synthesis and evaluation of heteroarylalanine diacids as potent and selective neutral endopeptidase inhibitors” (Bioorg Med Chem Lett, 2011).
pIC50: −log10 of the molar value.

What was measured:
[1] = target: Angiotensin-converting enzyme (Homo sapiens) (UniProt P12821)
[2] = Oral bioavailability in rat; format: ADME, organism-based; conditions: in vivo
[3] = Half life in iv dosed rat; format: ADME, organism-based; conditions: in vivo
[4] = Clearance in iv dosed rat; format: ADME, organism-based; conditions: in vivo
Neprilysin = Neprilysin (Homo sapiens, UniProt P08473)
Neprilysin, sequence (P08473 whole entry): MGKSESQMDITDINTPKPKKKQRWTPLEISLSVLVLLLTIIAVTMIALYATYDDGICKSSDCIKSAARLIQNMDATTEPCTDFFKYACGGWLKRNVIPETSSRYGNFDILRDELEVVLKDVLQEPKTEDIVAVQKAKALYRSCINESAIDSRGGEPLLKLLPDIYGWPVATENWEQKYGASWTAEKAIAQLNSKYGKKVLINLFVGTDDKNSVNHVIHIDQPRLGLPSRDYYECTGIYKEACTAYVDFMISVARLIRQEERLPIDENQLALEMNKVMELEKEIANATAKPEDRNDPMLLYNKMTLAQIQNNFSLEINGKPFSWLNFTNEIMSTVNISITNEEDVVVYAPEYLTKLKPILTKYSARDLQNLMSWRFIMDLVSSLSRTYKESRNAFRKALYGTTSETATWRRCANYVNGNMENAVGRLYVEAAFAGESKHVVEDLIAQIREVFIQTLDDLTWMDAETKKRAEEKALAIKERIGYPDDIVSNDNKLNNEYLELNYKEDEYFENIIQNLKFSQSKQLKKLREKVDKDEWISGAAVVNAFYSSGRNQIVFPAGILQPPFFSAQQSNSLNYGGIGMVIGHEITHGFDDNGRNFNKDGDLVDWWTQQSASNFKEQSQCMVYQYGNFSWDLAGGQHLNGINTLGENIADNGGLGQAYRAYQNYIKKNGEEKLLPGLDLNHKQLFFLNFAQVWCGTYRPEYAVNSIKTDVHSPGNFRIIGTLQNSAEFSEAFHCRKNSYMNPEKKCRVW
Description: Inhibition of neutral endopeptidase

Angiotensin-converting enzyme (Homo sapiens), sequence (P12821 whole entry, looked up): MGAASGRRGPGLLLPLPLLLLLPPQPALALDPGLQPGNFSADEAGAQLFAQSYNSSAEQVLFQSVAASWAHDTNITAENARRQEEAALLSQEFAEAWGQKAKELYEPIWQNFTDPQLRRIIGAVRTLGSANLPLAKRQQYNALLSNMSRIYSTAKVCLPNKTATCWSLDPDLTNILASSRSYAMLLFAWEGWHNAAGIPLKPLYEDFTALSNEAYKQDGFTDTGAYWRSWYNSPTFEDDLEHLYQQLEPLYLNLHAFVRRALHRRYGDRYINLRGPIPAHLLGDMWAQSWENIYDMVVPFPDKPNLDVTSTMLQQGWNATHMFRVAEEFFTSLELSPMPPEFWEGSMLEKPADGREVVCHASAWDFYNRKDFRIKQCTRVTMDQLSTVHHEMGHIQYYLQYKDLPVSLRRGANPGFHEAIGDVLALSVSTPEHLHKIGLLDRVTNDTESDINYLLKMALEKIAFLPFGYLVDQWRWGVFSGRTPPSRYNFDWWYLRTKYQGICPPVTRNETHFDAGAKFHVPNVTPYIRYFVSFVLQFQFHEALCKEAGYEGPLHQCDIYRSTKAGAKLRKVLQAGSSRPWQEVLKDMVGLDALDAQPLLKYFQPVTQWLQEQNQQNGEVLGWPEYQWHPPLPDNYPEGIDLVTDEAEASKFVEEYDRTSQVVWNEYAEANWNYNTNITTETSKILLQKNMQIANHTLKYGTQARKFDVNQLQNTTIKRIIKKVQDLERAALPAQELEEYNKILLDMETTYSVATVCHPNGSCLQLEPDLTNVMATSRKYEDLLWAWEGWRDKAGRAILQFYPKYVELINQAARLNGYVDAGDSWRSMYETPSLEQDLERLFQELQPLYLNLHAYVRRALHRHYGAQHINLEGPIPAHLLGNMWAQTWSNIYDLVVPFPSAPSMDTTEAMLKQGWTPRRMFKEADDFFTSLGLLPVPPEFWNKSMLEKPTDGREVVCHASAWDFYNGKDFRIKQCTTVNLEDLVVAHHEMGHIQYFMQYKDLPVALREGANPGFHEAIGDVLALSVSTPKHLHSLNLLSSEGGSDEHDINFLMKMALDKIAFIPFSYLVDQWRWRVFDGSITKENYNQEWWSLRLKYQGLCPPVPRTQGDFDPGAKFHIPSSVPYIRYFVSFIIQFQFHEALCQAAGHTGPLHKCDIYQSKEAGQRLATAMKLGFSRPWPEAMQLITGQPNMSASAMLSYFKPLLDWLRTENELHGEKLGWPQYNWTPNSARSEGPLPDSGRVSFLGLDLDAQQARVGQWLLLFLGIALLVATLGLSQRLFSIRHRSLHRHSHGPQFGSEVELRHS

Row | Structure (SMILES) | pIC50 [1] | bioavailability [2] [%] | half-life [3] [h] | clearance [4] [mL/min/kg] | pIC50 (Neprilysin) | IC50 [1]
1 | COCC[C@H](NC1(C(=O)N[C@@H](Cc2ncc(-c3ccccc3)o2)C(=O)O)CCCC1)C(=O)O | 6.57 | 1.7 | 2.1 | 4.8 | – | –
2 | CCC[C@H](NC1(C(=O)N[C@@H](Cc2nc(CC)co2)C(=O)O)CCCC1)C(=O)O | 6.89 | – | – | – | 7.66 | –
3 | COCCOC[C@H](CC1(C(=O)N[C@H]2CC[C@@H](C(=O)O)CC2)CCCC1)C(=O)O [CANDOXATRILAT] | – | – | – | – | 8.11 | Not Active
4 | COCC[C@H](NC1(C(=O)N[C@@H](Cc2ncc(-c3ccc(Cl)cc3)o2)C(=O)O)CCCC1)C(=O)O | 6.71 | – | – | – | 9.52 | –
5 | COCC[C@H](NC1(C(=O)N[C@@H](Cc2nc(-c3ccccc3)no2)C(=O)O)CCCC1)C(=O)O | 7.24 | – | – | – | 8.72 | –
6 | COCC[C@H](NC1(C(=O)N[C@@H](Cc2nnc(-c3ccccc3)o2)C(=O)O)CCCC1)C(=O)O | < 5.52 | – | – | – | 8.22 | –
7 | CCC[C@H](NC1(C(=O)N[C@@H](Cc2ncc(-c3ccccc3)o2)C(=O)O)CCCC1)C(=O)O | 7.09 | – | – | – | – | –
8 | CCC[C@H](NC1(C(=O)N[C@@H](Cc2nc(CC(C)C)co2)C(=O)O)CCCC1)C(=O)O | 7.12 | – | – | – | 7.70 | –
9 | CC(C)CC[C@H](N[C@@H](CCc1ccccc1)C(=O)O)C(=O)N[C@@H](Cc1ccc(-c2ccccc2)cc1)C(=O)O | 8.82 | – | – | – | 7.55 | –

Next, values leading:

Row | pIC50 [1] | bioavailability [2] [%] | half-life [3] [h] | clearance [4] [mL/min/kg] | pIC50 (Neprilysin) | IC50 [1] | Structure (SMILES)
10 | 6.68 | – | – | – | – | – | COCC[C@H](NC1(C(=O)N[C@@H](Cc2nc(C)c(-c3ccccc3)o2)C(=O)O)CCCC1)C(=O)O
11 | 7.60 | – | – | – | – | – | CCC[C@H](NC1(C(=O)N[C@@H](Cc2nc(-c3ccccc3)co2)C(=O)O)CCCC1)C(=O)O
12 | 6.89 | – | – | – | – | – | COCC[C@H](NC1(C(=O)N[C@@H](Cc2nc(-c3ccccc3)co2)C(=O)O)CCCC1)C(=O)O
13 | 8.47 | – | – | – | 9.22 | – | CS(=O)(=O)N[C@@H](CCCCN)C(=O)NC[C@H](CC1(C(=O)N[C@@H](Cc2ccc(O)cc2)C(=O)O)CCCC1)C(=O)O [SAMPATRILAT]
